Patent US6355799B1, “Substituted benzene compounds, process for their preparation, and herbicidal and defoliant compositions containing them” (ISK Americas Incorporated, priority 1997, dated 2002)

Tests used:
Type in all cases: in vivo
[1] = tested on: upland rice (Oryza sp., var. Tebonnet, RICE); assay: Pre-emerge test, crop safety; conditions: crop damage, pre-emerge, phytotoxicity rating 0-100 at 14 days after application
In short: (§1)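 Visual ratings on a 0-100 scale (0 no damage, 100 all plants dead) were taken at 14 days after treatment. Rates of 15-1000 g ai/ha in acetone, 187 l/ha, were sprayed onto soil one day after planting (pre-emerge) or onto 2-3 leaf plants with 0.25% v/v surfactant (post-emerge).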

[2] = tested on: field corn (Zea mays L., var. Dekalb 535, CORN); assay: Pre-emerge test, crop safety; conditions: crop damage, pre-emerge, phytotoxicity rating 0-100 at 14 days after application
In short: as §1

[3] = tested on: redroot pigweed (Amaranthus retroflexus, AMARE); assay: Pre-emerge test, greenhouse herbicide activity screening; conditions: pre-emerge, phytotoxicity rating 0-100 at 14 days after application
In short: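 Compounds in acetone were track-sprayed at 187 l/ha, 15–1000 g ai/ha, onto sandy loam pots. Pre-emerge seeds were sown one day before spraying, with surface watering afterwards. Post-emerge plants were at the 2–3 leaf stage and sprayed with 0.25% v/v non-ionic surfactant. Injury was rated 0–100 at 14 days.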

[4] = tested on: large crabgrass (Digitaria sanguinalis, DIGSA); assay: Post-emerge test, greenhouse herbicide activity screening; conditions: post-emerge, phytotoxicity rating 0-100 at 14 days after application
In short: as §1

[5] = tested on: lambsquarters (Chenopodium album, CHEAL); assay: as above; conditions: post-emerge, phytotoxicity rating 0-100 at 14 days after application
In short: as §1

[6] = tested on: sicklepod (Cassia obtusifolia, CASOB); assay: as above; conditions: post-emerge, phytotoxicity rating 0-100 at 14 days after application
In short: as §1

[7] = tested on: barnyardgrass (Echinochloa crus-galli, ECHCG); assay: as above; conditions: post-emerge, phytotoxicity rating 0-100 at 14 days after application
In short: as §1

[8] = tested on: velvetleaf (Abutilon theophrasti, ABUTH); assay: as above; conditions: post-emerge, phytotoxicity rating 0-100 at 14 days after application
In short: as §1

[9] = tested on: redroot pigweed (Amaranthus retroflexus, AMARE); assay: as above; conditions: post-emerge, phytotoxicity rating 0-100 at 14 days after application
In short: as §1

[10] = tested on: johnsongrass (Sorghum halepense, SORHA); assay: as above; conditions: post-emerge, phytotoxicity rating 0-100 at 14 days after application
In short: as §1

[11] = tested on: ivyleaf morningglory (Ipomoea hederacea, IPOHE); assay: as above; conditions: post-emerge, phytotoxicity rating 0-100 at 14 days after application
In short: as §1

[12] = tested on: green foxtail (Setaria viridis, SETVI); assay: as above; conditions: post-emerge, phytotoxicity rating 0-100 at 14 days after application
In short: as §1

[13] = tested on: large crabgrass (Digitaria sanguinalis, DIGSA); assay: Pre-emerge test, greenhouse herbicide activity screening; conditions: pre-emerge, phytotoxicity rating 0-100 at 14 days after application
In short: (§2)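 Sandy loam pots; pre-emerge: sown 1 d pre-spray, surface-watered after, then bottom-watered. Post-emerge: sown 8–21 d before, 2–3 leaf stage, + 0.25% v/v NIS, bottom-watered. Acetone, 187 l/ha track spray, 15–1000 g ai/ha. 0–100 injury score, day 14.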

[14] = tested on: lambsquarters (Chenopodium album, CHEAL); assay: as above; conditions: pre-emerge, phytotoxicity rating 0-100 at 14 days after application
In short: as §2

[15] = tested on: sicklepod (Cassia obtusifolia, CASOB); assay: as above; conditions: pre-emerge, phytotoxicity rating 0-100 at 14 days after application
In short: as §2

[16] = tested on: barnyardgrass (Echinochloa crus-galli, ECHCG); assay: as above; conditions: pre-emerge, phytotoxicity rating 0-100 at 14 days after application
In short: as §2

[17] = tested on: velvetleaf (Abutilon theophrasti, ABUTH); assay: as above; conditions: pre-emerge, phytotoxicity rating 0-100 at 14 days after application
In short: as §2

[18] = tested on: johnsongrass (Sorghum halepense, SORHA); assay: as above; conditions: pre-emerge, phytotoxicity rating 0-100 at 14 days after application
In short: as §2

[19] = tested on: ivyleaf morningglory (Ipomoea hederacea, IPOHE); assay: as above; conditions: pre-emerge, phytotoxicity rating 0-100 at 14 days after application
In short: as §2

[20] = tested on: green foxtail (Setaria viridis, SETVI); assay: as above; conditions: pre-emerge, phytotoxicity rating 0-100 at 14 days after application
In short: as §2

[21] = tested on: upland rice (Oryza sp., var. Tebonnet, RICE); assay: Post-emerge test, crop safety; conditions: post-emerge, crop damage rating 0-100 at 14 days after application
In short: as §2

[22] = tested on: field corn (Zea mays L., var. Dekalb 535, CORN); assay: Post-emerge test, crop safety; conditions: post-emerge, crop damage rating 0-100 at 14 days after application
In short: as §2

For Cc1c(Cl)cc(F)c(-n2c(=O)cc(C(F)(F)F)n(C)c2=O)c1NC(=O)OCc1ccc(Cl)cc1 [4-61], which “Pre-emerge Herbicidal Activity RICE” value ([1]; rate 63 g ai/ha) is on record?
The value was 0.

What about the “Pre-emerge Herbicidal Activity RICE” value ([1]; rate 250 g ai/ha) of the same compound?
Its value is 50.

What about the “Pre-emerge Herbicidal Activity CORN” value ([2]; rate 63 g ai/ha) of the same compound?
Its value is 0.

What about the “Pre-emerge Herbicidal Activity CORN” value ([2]; rate 250 g ai/ha) of the same compound?
The value was 0.

What about the “Pre-emerge Herbicidal Activity AMARE” value ([3]; rate 63 g ai/ha) of the same compound?
Its value is 100.

What about the “Pre-emerge Herbicidal Activity AMARE” value ([3]; rate 250 g ai/ha) of the same compound?
The value was 100.

What about the “Post-emerge Herbicidal Activity DIGSA” value ([4]; 63 g ai/ha) of the same compound?
The value was 50.

And the “Post-emerge Herbicidal Activity DIGSA” value ([4]; 250 g ai/ha)?
Its value is 70.

What about the “Post-emerge Herbicidal Activity CHEAL” value ([5]; 63 g ai/ha) of the same compound?
The value was 100.

What about the “Post-emerge Herbicidal Activity CHEAL” value ([5]; 250 g ai/ha) of the same compound?
The value was 100.

And the “Post-emerge Herbicidal Activity CASOB” value ([6]; 63 g ai/ha)?
Its value is 100.

What about the “Post-emerge Herbicidal Activity CASOB” value ([6]; 250 g ai/ha) of the same compound?
Its value is 100.

What about the “Post-emerge Herbicidal Activity ECHCG” value ([7]; 63 g ai/ha) of the same compound?
Its value is 40.

And the “Post-emerge Herbicidal Activity ECHCG” value ([7]; 250 g ai/ha)?
The value was 60.

What about the “Post-emerge Herbicidal Activity ABUTH” value ([8]; 63 g ai/ha) of the same compound?
The value was 100.

What about the “Post-emerge Herbicidal Activity ABUTH” value ([8]; 250 g ai/ha) of the same compound?
Its value is 100.

What about the “Post-emerge Herbicidal Activity AMARE” value ([9]; 63 g ai/ha) of the same compound?
The value was 100.

What about the “Post-emerge Herbicidal Activity AMARE” value ([9]; 250 g ai/ha) of the same compound?
The value was 100.

And the “Post-emerge Herbicidal Activity SORHA” value ([10]; 63 g ai/ha)?
The value was 50.

What about the “Post-emerge Herbicidal Activity SORHA” value ([10]; 250 g ai/ha) of the same compound?
Its value is 70.

And the “Post-emerge Herbicidal Activity IPOHE” value ([11]; 63 g ai/ha)?
Its value is 100.

What about the “Post-emerge Herbicidal Activity IPOHE” value ([11]; 250 g ai/ha) of the same compound?
The value was 100.

And the “Post-emerge Herbicidal Activity SETVI” value ([12]; 63 g ai/ha)?
Its value is 70.

What about the “Post-emerge Herbicidal Activity SETVI” value ([12]; 250 g ai/ha) of the same compound?
Its value is 80.

And the “Pre-emerge Herbicidal Activity DIGSA” value ([13]; rate 63 g ai/ha)?
The value was 50.

And the “Pre-emerge Herbicidal Activity DIGSA” value ([13]; rate 250 g ai/ha)?
Its value is 90.

What about the “Pre-emerge Herbicidal Activity CHEAL” value ([14]; rate 63 g ai/ha) of the same compound?
Its value is 100.

And the “Pre-emerge Herbicidal Activity CHEAL” value ([14]; rate 250 g ai/ha)?
The value was 100.

What about the “Pre-emerge Herbicidal Activity CASOB” value ([15]; rate 63 g ai/ha) of the same compound?
Its value is 40.

And the “Pre-emerge Herbicidal Activity CASOB” value ([15]; rate 250 g ai/ha)?
The value was 30.

And the “Pre-emerge Herbicidal Activity ECHCG” value ([16]; rate 63 g ai/ha)?
The value was 30.

What about the “Pre-emerge Herbicidal Activity ECHCG” value ([16]; rate 250 g ai/ha) of the same compound?
Its value is 50.

What about the “Pre-emerge Herbicidal Activity ABUTH” value ([17]; rate 63 g ai/ha) of the same compound?
Its value is 60.

What about the “Pre-emerge Herbicidal Activity ABUTH” value ([17]; rate 250 g ai/ha) of the same compound?
Its value is 70.

And the “Pre-emerge Herbicidal Activity SORHA” value ([18]; rate 63 g ai/ha)?
Its value is 20.

And the “Pre-emerge Herbicidal Activity SORHA” value ([18]; rate 250 g ai/ha)?
Its value is 50.

And the “Pre-emerge Herbicidal Activity IPOHE” value ([19]; rate 63 g ai/ha)?
Its value is 30.

And the “Pre-emerge Herbicidal Activity IPOHE” value ([19]; rate 250 g ai/ha)?
The value was 60.

What about the “Pre-emerge Herbicidal Activity SETVI” value ([20]; rate 63 g ai/ha) of the same compound?
The value was 80.

What about the “Pre-emerge Herbicidal Activity SETVI” value ([20]; rate 250 g ai/ha) of the same compound?
Its value is 75.

And the “Post-emerge Herbicidal Activity RICE” value ([21]; 63 g ai/ha)?
Its value is 40.

And the “Post-emerge Herbicidal Activity RICE” value ([21]; 250 g ai/ha)?
Its value is 80.

What about the “Post-emerge Herbicidal Activity CORN” value ([22]; 63 g ai/ha) of the same compound?
Its value is 50.

What about the “Post-emerge Herbicidal Activity CORN” value ([22]; 250 g ai/ha) of the same compound?
The value was 70.
